Measurements: PMC7374098, “Design of thienopyranone-based BET inhibitors that bind multiple synthetic lethality targets” (Scientific Reports, 2020)

Legend:
[1] = target: T1, BRD4BD1 (Homo sapiens, UniProt O60885); assay: AlphaScreen displacement binding assay with tetra-acetylated histone H4 peptide, BRD4BD1; details: for IC50: displacement of H4K5acK8acK12acK16ac peptide
T1 construct: His; purchased Reaction Biology
Experimental: (§1) In effort to enhance its potency, we designed a new set of chemotypes by in silico screening. […] These compounds were synthesized and their activities toward BRD4BD1 and BRD4BD2 were assessed in a displacement binding assay using the polyacetylated histone H4 peptide H4K5acK8acK12acK16ac as a ligand (Fig. 1b).
(§2) PI3K activity screening and IC50 measurements were performed by Life Technologies (Thermo Fisher Scientific) using ADAPTA, a fluorescence-based in vitro assay.

[2] = target: T2, BRD4BD2 (Homo sapiens, UniProt O60885); assay: AlphaScreen displacement binding assay with tetra-acetylated histone H4 peptide, BRD4BD2; details: displacement of H4K5acK8acK12acK16ac peptide
T2 construct: His; purchased Reaction Biology
Experimental: as §1, §2

[3] = target: T3, PI3Kα (Homo sapiens, UniProt P42336); assay: PI3K kinase screening assay (ADAPTA); assay type: biochemical
T3 construct: purchased Life Technologies (Thermo Fisher Scientific)
Experimental: as §1, §2

[4] = system: JeKo-1 cells; assay: Propidium iodide flow cytometry cell cycle analysis, JeKo-1; assay type: cell-based; details: 24 h
Experimental: (§3) (Fig. 2a). […] Palbociclib was used as control given its known inhibition of CDK4/6 and resultant G1 cell cycle growth arrest. […] We next assessed the level of apoptosis by FITC-annexin V incorporation in each of these cell lines.
(§4) Huh7, CHLA-255, or Jeko-1 cells were seeded at 1.5 × 10^6 cells in 60-mm tissue culture dishes and allowed to adhere overnight. […] Cells were released with Accutase (Innovative Cell Technologies, San Diego, CA), washed with PBS and divided for either staining with the FITC Annexin V Apoptosis Detection Kit (BD Biosciences, San Jose, CA) or overnight fixation with ethanol followed by staining with propidium iodide (Roche, Basel, Switzerland) according to each manufacturers’ instructions. Cell staining was analyzed with the FACSCalibur flow cytometer (BD Biosciences) and FlowJo (FlowJo LLC, Ashland, Oregon) and ModFit LT (Verity Software House, Topsham, ME) software packages.

[5] = system: Huh7 cells; assay: Propidium iodide flow cytometry cell cycle analysis, Huh7; assay type: cell-based; details: 24 h
Experimental: as §3, §4

[6] = system: CHLA-255 cells; assay: Propidium iodide flow cytometry cell cycle analysis, CHLA-255; assay type: cell-based; details: 24 h
Experimental: as §3, §4

[7] = system: Huh7 cells; assay: FITC-annexin V apoptosis assay, Huh7; assay type: cell-based; details: treatment at the IC50, 24 h
Experimental: as §3, §4

[8] = system: Huh7 subcutaneous xenografts; assay: Huh7 subcutaneous xenograft in NGS mice; assay type: in vivo; details: 30 mg/kg oral gavage, one week
Experimental: (§7) Asterisks denote p ≤ 0.05 in comparison with vehicle control by unpaired Student’s t test.
(§8) All procedures involving animals were approved by the UCSD Animal Care Committee, which serves to ensure that all federal guidelines concerning animal experimentation are met. Six to eight week old NGS mice were implanted with 10^7 Huh7 or Jeko-1 cells in the right flank. When tumors reached ∼100 mm^3 after tumor implantation, animals were divided into four groups (n = 8 per group). […] Mice were treated for 1 week by oral gavage, 5 times per week.

[9] = system: JeKo-1 subcutaneous xenografts; assay: JeKo-1 subcutaneous xenograft in NGS mice; assay type: in vivo; details: 40 mg/kg oral gavage, one week
Experimental: as §7, §8

[10] = system: CDK4; parameters: method as in PMID 32793389; details: previously identified; cited from earlier work
[11] = system: JeKo-1 cells; assay: CellTiter-Glo cell viability assay, JeKo-1; assay type: cell-based; details: Homo sapiens, mantle cell lymphoma, 48 h, read-out: IC50 anti-proliferative activity, JeKo-1
From the text: (§5) Although many inhibitors of BRD4 have been developed, the importance of inhibition of both BDs to subdue pathological processes remains unclear, as the two bromodomains have high sequence similarity. We therefore examined whether inhibition of only one bromodomain of BRD4 could lead to sufficient anti-cancer effects.
(§6) All cell lines were obtained from ATCC and tested for mycoplasma and mouse pathogens and checked for authenticity against the International Cell Line Authentication Committee (ICLAC; https://iclac.org/databases/cross-contaminations/) list. Cell viability measurements were performed using CellTiter-Glo luminescent cell viability assay (Promega). […] Cell Titer Glow assay reagent (100 µl) was added to each well and incubated for 10 min at room temperature. Luminescence signal was measured in a Varioscan multimode reader.

[12] = system: Mino cells; assay: CellTiter-Glo cell viability assay, Mino; assay type: cell-based; details: Homo sapiens, mantle cell lymphoma, 48 h, read-out: IC50 anti-proliferative activity, Mino
From the text: as §5, §6

[13] = system: Z138 cells; assay: CellTiter-Glo cell viability assay, Z138; assay type: cell-based; details: Homo sapiens, Z-138, mantle cell lymphoma, 48 h, read-out: IC50 anti-proliferative activity, Z138
From the text: as §5, §6

[14] = system: SKNBE-2 cells; assay: CellTiter-Glo cell viability assay, SKNBE-2; assay type: cell-based; details: Homo sapiens, SKNBE2, 48 h, read-out: IC50 anti-proliferative activity, neuroblastoma (SKNBE-2)
From the text: as §5, §6

[15] = system: PC3 cells; assay: CellTiter-Glo cell viability assay, PC3; assay type: cell-based; details: PTEN mutated, 48 h
From the text: as §5, §6

[16] = system: AKT phosphorylation at Ser473 (PI3K activity) in JeKo-1 cells; assay: Western blot of AKT phosphorylation at Ser473 in IgM-stimulated JeKo-1 cells; assay type: cell-based; details: JeKo-1 cells stimulated with IgM, 1 h incubation, increasing concentrations up to 5 µM
Experimental: as §5
Cells were resuspended with 1 ml of RPMI-1640 (serum free) and stimulated with 10 µg/ml of goat F(ab) 2 anti-human IgM antibody (Southern Biotech Birmingham, AL, USA) at 37 °C for 10 min. Cells were then harvested and lysed with RIPA buffer followed by Western blot analysis for pAKT expression.

[17] = system: HCT116 cells; assay: CellTiter-Glo cell viability assay, HCT116; assay type: cell-based; details: Homo sapiens, HCT-116, 48 h, read-out: IC50 anti-proliferative activity, colon carcinoma (HCT116)
From the text: as §5, §6

T3 sequence (P42336 whole entry): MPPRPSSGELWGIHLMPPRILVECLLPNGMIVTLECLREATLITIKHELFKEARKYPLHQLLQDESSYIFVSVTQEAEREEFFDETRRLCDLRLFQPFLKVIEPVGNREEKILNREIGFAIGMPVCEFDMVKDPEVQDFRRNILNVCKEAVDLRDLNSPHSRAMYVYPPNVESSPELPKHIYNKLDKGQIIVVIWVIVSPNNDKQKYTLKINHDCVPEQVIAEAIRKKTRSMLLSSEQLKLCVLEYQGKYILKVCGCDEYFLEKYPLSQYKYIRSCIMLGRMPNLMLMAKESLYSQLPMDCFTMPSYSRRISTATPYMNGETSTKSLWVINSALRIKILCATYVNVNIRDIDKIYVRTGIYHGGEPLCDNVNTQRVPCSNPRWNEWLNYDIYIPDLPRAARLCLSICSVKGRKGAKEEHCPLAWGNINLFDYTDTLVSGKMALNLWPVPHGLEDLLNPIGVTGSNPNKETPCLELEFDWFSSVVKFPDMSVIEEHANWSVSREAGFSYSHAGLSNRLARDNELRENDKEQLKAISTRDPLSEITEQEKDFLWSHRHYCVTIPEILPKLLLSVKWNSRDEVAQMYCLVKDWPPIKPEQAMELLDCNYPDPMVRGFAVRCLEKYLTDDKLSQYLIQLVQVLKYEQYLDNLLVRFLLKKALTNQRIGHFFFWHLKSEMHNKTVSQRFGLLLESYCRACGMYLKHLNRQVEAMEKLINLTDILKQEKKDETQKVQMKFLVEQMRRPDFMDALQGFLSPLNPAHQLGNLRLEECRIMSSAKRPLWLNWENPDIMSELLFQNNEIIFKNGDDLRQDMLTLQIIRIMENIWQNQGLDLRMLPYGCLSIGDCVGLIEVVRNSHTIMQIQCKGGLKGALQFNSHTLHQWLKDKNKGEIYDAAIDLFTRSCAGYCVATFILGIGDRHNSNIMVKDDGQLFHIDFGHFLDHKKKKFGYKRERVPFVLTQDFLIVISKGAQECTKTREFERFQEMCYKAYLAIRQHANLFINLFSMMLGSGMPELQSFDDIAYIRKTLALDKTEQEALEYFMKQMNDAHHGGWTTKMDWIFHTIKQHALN
T3 sequence (P27986 whole entry partner): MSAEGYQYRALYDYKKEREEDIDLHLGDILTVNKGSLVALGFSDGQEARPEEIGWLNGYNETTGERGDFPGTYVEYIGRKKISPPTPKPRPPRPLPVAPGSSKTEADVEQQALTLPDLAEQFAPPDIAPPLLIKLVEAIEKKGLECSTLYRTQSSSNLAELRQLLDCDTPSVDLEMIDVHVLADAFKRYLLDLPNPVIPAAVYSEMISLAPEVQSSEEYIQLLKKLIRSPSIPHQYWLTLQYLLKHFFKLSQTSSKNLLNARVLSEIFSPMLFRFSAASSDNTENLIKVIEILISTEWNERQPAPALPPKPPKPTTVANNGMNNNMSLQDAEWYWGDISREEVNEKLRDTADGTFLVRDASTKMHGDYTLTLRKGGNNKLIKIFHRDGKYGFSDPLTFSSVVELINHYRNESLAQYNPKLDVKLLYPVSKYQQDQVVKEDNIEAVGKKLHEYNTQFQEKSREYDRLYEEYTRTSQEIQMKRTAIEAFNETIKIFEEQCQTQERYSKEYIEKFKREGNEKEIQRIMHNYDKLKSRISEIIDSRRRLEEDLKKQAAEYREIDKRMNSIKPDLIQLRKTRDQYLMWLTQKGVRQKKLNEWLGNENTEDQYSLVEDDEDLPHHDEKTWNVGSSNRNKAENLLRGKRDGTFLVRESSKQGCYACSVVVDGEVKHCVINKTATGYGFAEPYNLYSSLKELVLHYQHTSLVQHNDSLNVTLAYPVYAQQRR

IC50 [1] [nM] | IC50 [2] [nM] | IC50 [3] [nM] | IC50 [14] [nM] | SMILES | IC50 [11] [nM] | IC50 [12] [nM] | IC50 [13] [nM] | cytotoxic activity in prostate cancer cell line PC3 [15] | AKT phosphorylation at Ser473 [16] | other results
388 | 15700 | 48700 | – | O=c1cc(N2CCNCC2)oc2c(-c3ccc4c(c3)OCCO4)csc12 [SF2523P] | – | – | – | – | – | –
– | – | – | – | CN(C)C(=O)c1cc2cnc(Nc3ccc(-c4csc5c(=O)cc(N6CCOCC6)oc45)cc3)nc2n1C1CCCC1 [SRX3177] | – | – | – | – | – | cell cycle arrest at higher doses (near the IC50), JeKo-1 [4]: induced G2 phase growth arrest; cell cycle arrest at low dosage (near the IC10), JeKo-1 [4]: induction of G1 cell cycle arrest; cell cycle arrest at higher doses (near the IC50), Huh7 [5]: induced G2 phase growth arrest; cell cycle arrest at low dosage (near the IC10), Huh7 [5]: induction of G1 cell cycle arrest; cell cycle arrest at low dosage (near the IC10), CHLA-255 [6]: induction of G1 cell cycle arrest; induction of early apoptosis, Huh7 [7]: ~ threefold; tumor growth vs vehicle control, Huh7 xenograft [8]: significant abrogation of tumor growth; tumor growth vs vehicle control, JeKo-1 xenograft [9]: significant abrogation of tumor growth; mortality (mouse, in vivo, po): no treatment-related death; adverse effects / toxicity (oral gavage, one week): no adverse effects were noted; animal weight (oral gavage, one week, vs vehicle): remained the same; IC50 [10]: 2.5 nM
27 | 2810 | 5700 | 15000 | O=C(NCc1cccnc1)c1cc(-c2csc3c(=O)cc(N4CCNCC4)oc23)cc2c1OCCO2 [SRX3212P] | 3100 | 3900 | 2900 | Neither inhibitor sensitized | did not decrease AKT phosphorylation | –
3.7 | 32 | 22 | 3200 | O=C(NCc1cccnc1)c1cc(-c2csc3c(=O)cc(N4CCOCC4)oc23)cc2c1OCCO2 [SRX3212] | 280 | 440 | 240 | Neither inhibitor sensitized | concomitant decrease in levels of AKT phosphorylation at Ser473 | increase in potency of SRX3212 compared to SRX3212P ([1]; BRD4BD1): sevenfold; IC50 [17]: 1300 nM
